Test results from US12605352B2, “Compositions and methods for inhibiting blood cancer cell growth” (UNIVERSITY OF NEW BRUNSWICK, priority 2019, dated 2026).

Key:
[1] = tested on: HL-60 human leukemia cells; test: Cell growth inhibition (cell viability assay) on human leukemia cells HL-60; format: cell-based; settings: HL-60 cells, 48 hr treatment
Text: (§1) In certain embodiments of the present invention, the remarkable cancer cell growth inhibitory potential of caffeic acid phenpropyl ester analogues was established by treating human leukemia, myeloma and lymphoma cell lines with the analogues of Table 1 and measuring the viability of blood cancer cells by cell viability assay. The efficacy of the analogues of Table 1 in comparison to a standard chemotherapy drug was confirmed.
With reference to Table 5 and FIG. 4, FIG. 4 is a bar graph depicting cell growth inhibitory effect of caffeic acid phenpropyl ester (GL8) analogues at 10 uM concentration according to certain aspects of the present disclosure on human leukemia cells (Cell line: HL-60; 48 hr treatment).

[2] = tested on: OCI-LY3 human lymphoma cells; test: Cell growth inhibition (cell viability assay) on IMiD-resistant human lymphoma cells OCI-LY3; format: cell-based; settings: for anti-lymphoma cell growth inhibition (in words) / inhibition at 10 µM: 10 uM; for anti-lymphoma cell growth inhibition (in words): OCI-LY3, listed in decreasing order of bioactivity; for inhibition at 1 µM / inhibition at 10 µM: Homo sapiens, OCI-LY3 cells, 48 hr treatment
Text: as §1
With reference to Table 3 and FIG. 2, FIG. 2 is a bar graph depicting cell growth inhibitory effect of caffeic acid phenpropyl ester (GL8) analogues according to certain aspects of the present disclosure at 1 uM concentration on human lymphoma cells (Cell line: OCI-LY3; 48 hr treatment).
With reference to Table 1, Table 4 and FIG. 3, FIG. 3 is a bar graph depicting cell growth inhibitory effect of caffeic acid phenpropyl ester (GL8) analogues according to certain aspects of the present disclosure at 10 uM concentration on human lymphoma cells (Cell line: OCI-LY3; 48 hr treatment).

[3] = tested on: KMM-1 human myeloma cells; test: Cell growth inhibition (cell viability assay) on IMiD-resistant human myeloma cells KMM-1; format: cell-based; settings: for inhibition at 10 µM: Homo sapiens, KMM-1 cells, 48 hr treatment; for anti-myeloma cell growth inhibition (in words): 10 uM, KMM-1, listed in decreasing order of bioactivity
Text: as §1
With reference to Table 1, Table 2 and FIG. 1, FIG. 1 is a bar graph depicting cell growth inhibitory effect of caffeic acid phenpropyl ester (GL8) analogues at 10 uM concentration according to certain aspects of the present disclosure on human myeloma cells (Cell line: KMM-1; 48 hr treatment).

[4] = tested on: myeloma cell lines (KMM1, MM1R, JJN3); test: PrestoBlue cell viability assay, concentration response on myeloma cell lines; format: cell-based, human; settings: in comparison to IMiDs, CAPE, GL8 and J229; 48 hours
Method: Myeloma cell lines were treated for 3 or 5 days with increasing concentration of lenalidomide (FIG. 5A) and pomalidomide (FIG. 5B). KMM1 cells (FIG. 5D), MM1R cells (FIG. 5E), and JJN3 cells (FIG. 5F) were treated for 48 hours with varying concentration of CAPE, GL8, As26 and J229. The cell growth inhibition was determined by PrestoBlue cell viability assay. Data from three independent experiments is presented as mean±SD. IC50 values (FIG. 5C) representing half-maximal inhibitory concentration of compounds were determined using GraphPad prism analyses software.

KMM1 cells = test: Annexin V-PI flow cytometry apoptosis assay on KMM1 myeloma cells; format: cell-based, human; settings: 10 uM, 72-hour treatment
Method: Induction of apoptosis in myeloma cells by various inhibitors was determined by staining exposed phosphatidylserine with Annexin V-FITC and DNA with Propidium iodide using Alexa Fluor® 488 annexin V/Dead Cell Apoptosis Kit (Invitrogen, ThermoFisher Scientific, CA) according to the manufacturer's instructions. Single-cell suspensions were analyzed on a Beckmann Coulter Gallios Flow Cytometer with Kaluza analyses software. Twenty-five thousand events were acquired for every condition. Apoptotic cells were scored as Annexin V+, PI− and Annexin V+, PI+.
Referring to FIG. 6, Apoptotic effect of veh/vehicle (DMSO), lenalidomide (len), pomalidomide (pom), CAPE, GL8, As26 and J229 (all compounds at 10 uM concentration) on KMM1 cells upon 72-hour treatment followed by Annexin V-PI flow cytometry analyses is shown. Percentage of early and late apoptotic cells are presented as mean±SD (*P≤0.05; **P≤0.01).

Row | Structure (SMILES) | inhibition at 10 µM [1] | anti-lymphoma cell growth inhibition (in words) [2] | inhibition at 1 µM [2] | inhibition at 10 µM [2] | inhibition at 10 µM [3] | anti-myeloma cell growth inhibition (in words) [3] | myeloma cell growth inhibitory effect (in words) [4] | apoptotic effect (in words) (KMM1 cells)
1 | O=C(/C=C/c1cccc(O)c1O)OCCCc1ccccc1 [As25, (E)-3-phenylpropyl 3-(2,3-dihydroxyphenyl)acrylate] | 13.6% | superior anti-lymphoma cell growth inhibition | 69% | 84% | 15.1% |  |  | 
2 | O=C(/C=C/c1cc(O)ccc1O)OCCCc1ccccc1 [As26, (E)-3-phenylpropyl 3-(2,5-dihydroxyphenyl)acrylate] | 54.4% | superior anti-lymphoma cell growth inhibition | 26.6% | 90.3% | 89.7% | superior anti-myeloma cell growth inhibition | superior myeloma cell growth inhibitory effect | Remarkable apoptotic effect
3 | O=C(/C=C/c1ccc(O)c(O)c1)OCCc1ccccc1 [CAPE, Caffeic acid (3,4-dihydroxycinnamic acid) phenethyl ester, reference compound] | -6.8% |  | -24.3% | 51.8% | 14.7% |  |  | 
4 | O=C(/C=C/c1ccc(O)c(O)c1)OCc1ccccc1 [GL7, (E)-benzyl 3-(3,4-dihydroxyphenyl)acrylate] | 20.5% |  | 10.5% | 18.9% | 15.9% |  |  | 
5 | O=C(/C=C/c1ccc(O)c(O)c1)OCCCc1ccccc1 [GL8, caffeic acid phenpropyl ester, reference compound] | 36% |  | -4.6% | 78.7% | 28.2% |  |  | 
6 | O=C(/C=C/c1ccc(O)c(O)c1)Oc1ccccc1 [GL9, (E)-phenyl 3-(3,4-dihydroxyphenyl)acrylate] | 6.8% |  | 26.3% | 44.7% | 26% |  |  | 
7 | COc1cc(/C=C/C(=O)OCCc2ccccc2)cc(OC)c1O [HM5, (E)-phenethyl 3-(4-hydroxy-3,5-dimethoxyphenyl)acrylate] | -13.3% |  | 3.1% | -15.4% | -8.6% |  |  | 
8 | COc1cc(/C=C/C(=O)OCCCc2ccccc2)cc(OC)c1O [HM7, (E)-3-phenylpropyl 3-(4-hydroxy-3,5-dimethoxyphenyl)acrylate] | 24.1% | superior anti-lymphoma cell growth inhibition | -4.9% | 90% | 26.6% | superior anti-myeloma cell growth inhibition |  | 
9 | O=C(/C=C/c1ccc(O)c(O)c1)OC/C=C/c1ccccc1 [LL14, (2E)-cinnamyl 3-(3,4-dihydroxyphenyl)acrylate] | 21.6% |  | -1% | 61.5% | 16.1% |  |  | 
10 | O=C(/C=C/c1ccc(O)c(O)c1)OCCCCc1ccccc1 [LL23, (E)-4-phenylbutyl 3-(3,4-dihydroxyphenyl)acrylate] | 33% |  | -9.3% | 71.7% | 27.2% | superior anti-myeloma cell growth inhibition |  | 
11 | O=C(/C=C/c1ccc(O)c(O)c1)NCCCc1ccccc1 [LL28, (E)-3-(3,4-dihydroxypheny1)-N-(3-phenylpropyl)acrylamide] | 8.7% |  | -9.5% | 36% | 15.8% |  |  | 
12 | Nc1cccc2c1CN(C1CCC(=O)NC1=O)C2=O (stereo not shown) [Lenalidomide, lenalidomide, reference compound] | 1.6% |  |  | 7.5% | 7.5% |  |  | 
13 | Cc1ccc(CCOC(=O)/C=C/c2ccc(O)c(O)c2)cc1 [MT25, (E)-(4-methylphenethyl) 3-(3,4-dihydroxyphenyl)acrylate] | 28.7% |  | 10% | 59.8% | 21.6% |  |  | 
14 | O=C(/C=C/c1ccc(O)c(O)c1)OCCc1ccc(F)cc1 [MT26, (E)-(4-fluorophenethyl) 3-(3,4-dihydroxyphenyl)acrylate] | 32.1% | superior anti-lymphoma cell growth inhibition | 0.7% | 79.3% | 25.9% |  |  | 
15 | COc1cc(/C=C/C(=O)OCCc2ccccc2)ccc1O [MT49, (E)-phenethyl 3-(4-hydroxy-3-methoxyphenyl)acrylate] | 14.4% |  | -1% | 1.2% | 6.5% |  |  | 
16 | COc1cc(/C=C/C(=O)OCCCc2ccccc2)ccc1O [MT50, (E)-3-phenylpropyl 3-(4-hydroxy-3-methoxyphenyl)acrylate] | 13.4% |  | -0.7% | 1.5% | 13.6% |  |  | 
17 | O=C(/C=C/c1ccc(O)cc1O)OCCCc1ccccc1 [MT72, (E)-3-phenylpropyl 3-(2,4-dihydroxyphenyl)acrylate] | -8.2% |  | 3.3% | -4.5% | -0.2% |  |  | 
18 | O=C(/C=C/c1ccc(O)c(O)c1)OCC#Cc1ccccc1 [Molecule J91, (E)-3-phenylprop-2-ynyl 3-(3,4-dihydroxyphenyl)acrylate] | 32.4% |  | 0.3% | 39.8% | 31.7% | superior anti-myeloma cell growth inhibition |  | 
19 | O=C(/C=C/c1ccc(O)c(O)c1)CCCc1ccccc1 [Molecule J205, (E)-1-(3,4-dihydroxyphenyl)-6-phenylhex-1-en-3-one] | 60.7% |  | 18.7% | 76.6% | 22.2% |  |  | 
20 | Oc1ccc(/C=C/COCCCc2ccccc2)cc1O [Molecule J229, 4-((E)-3-(3-phenylpropoxy)prop-1-enyl)benzene-1,2-diol] | 54.3% | superior anti-lymphoma cell growth inhibition | 2.3% | 78.2% | 49.4% | superior anti-myeloma cell growth inhibition |  | 
